Values joined by “and” are separate entries in the source; they are usually repeats but may differ in a detail not shown here. Identical values can stand only once.
How the values were obtained:
Cyclic GMP-AMP synthase [1] = biological target: T1, Cyclic GMP-AMP synthase (Homo sapiens, UniProt Q8N884); assay: Binding affinity to human cGAS assessed as dissociation constant measured upto 240 secs by surface plasmon resonance assay
Cyclic GMP-AMP synthase [2] = biological target: T1, Cyclic GMP-AMP synthase; assay: Inhibition of cGAS in human THP1-Dual cells preincubated for 1 hr followed by cGAMP addition and measured after 24 hrs by luminescence based QUANTI-Luc assay
Cyclic GMP-AMP synthase [3] = biological target: T2, Cyclic GMP-AMP synthase (Mus musculus, UniProt Q8C6L5); assay: Inhibition of cGAS in mouse RAW-Lucia ISG cells preincubated for 1 hr followed by cGAMP addition and measured after 24 hrs by luminescence based QUANTI-Luc assay
Cyclic GMP-AMP synthase [4] = biological target: T2, Cyclic GMP-AMP synthase; assay: Inhibition of cGAS in dsDNA activated mouse RAW-Lucia ISG cells preincubated for 1 hr followed by cGAMP addition and measured after 24 hrs by luminescence based QUANTI-Luc assay
[5] = Cytotoxicity against mouse RAW-Lucia ISG cells incubated for 24 hrs by CCK-8 method
Cyclic GMP-AMP synthase [6] = biological target: T1, Cyclic GMP-AMP synthase; assay: Inhibition of full length recombinant human cGAS expressed in Escherichia coli BL21 (DE3) incubated for 7 hrs by Kinase-glo max luminescent kinase assay
[7] = Half life in rat at 1 mg/kg, iv; details: in vivo
[8] = MRT last in rat at 1 mg/kg, iv; details: in vivo
[9] = Volume of distribution at steady state in rat at 1 mg/kg, iv; details: in vivo
[10] = Half life in rat at 3 mg/kg, po; details: in vivo
[11] = MRT last in rat at 3 mg/kg, po; details: in vivo
Cyclic GMP-AMP synthase [12] = biological target: T1, Cyclic GMP-AMP synthase; assay: Inhibition of cGAS in dsDNA stimulated human THP-1 cells assessed as inhibition of IFNB1 mRNA level by qRT-PCR analysis
in vivo [13] = details: rat, iv, 1 mg/kg
in vivo [14] = details: rat, iv, 1 mg/kg; remark: listed apart in the source
in vivo [15] = details: rat, po, 3 mg/kg
Description: Tmax in rat at 3 mg/kg, po

in vivo [16] = details: rat, po, 3 mg/kg; remark: listed apart in the source
Description: Cmax in rat at 3 mg/kg, po

in vivo [17] = details: rat, po, 3 mg/kg; remark: listed apart in the source
Description: AUC last in rat at 3 mg/kg, po

in vivo [18] = details: rat, po, 3 mg/kg; remark: listed apart in the source
Description: Oral bioavailability in rat at 3 mg/kg

THP1-Dual = assay: Cytotoxicity against human THP1-Dual cells incubated for 24 hrs by CCK-8 method
Cyclic GMP-AMP synthase [19] = biological target: T1, Cyclic GMP-AMP synthase; assay: Inhibition of cGAS in dsDNA activated human THP1-Dual cells preincubated for 1 hr followed by cGAMP addition and measured after 24 hrs by luminescence based QUANTI-Luc assay
Cyclic GMP-AMP synthase [20] = biological target: T1, Cyclic GMP-AMP synthase; assay: Inhibition of human cGas incubated for 120 mins
Cyclic GMP-AMP synthase [21] = biological target: T2, Cyclic GMP-AMP synthase; assay: Inhibition of mouse cGas incubated for 120 mins
Cyclic GMP-AMP synthase [22] = biological target: T2, Cyclic GMP-AMP synthase

T1 sequence (Q8N884 whole entry): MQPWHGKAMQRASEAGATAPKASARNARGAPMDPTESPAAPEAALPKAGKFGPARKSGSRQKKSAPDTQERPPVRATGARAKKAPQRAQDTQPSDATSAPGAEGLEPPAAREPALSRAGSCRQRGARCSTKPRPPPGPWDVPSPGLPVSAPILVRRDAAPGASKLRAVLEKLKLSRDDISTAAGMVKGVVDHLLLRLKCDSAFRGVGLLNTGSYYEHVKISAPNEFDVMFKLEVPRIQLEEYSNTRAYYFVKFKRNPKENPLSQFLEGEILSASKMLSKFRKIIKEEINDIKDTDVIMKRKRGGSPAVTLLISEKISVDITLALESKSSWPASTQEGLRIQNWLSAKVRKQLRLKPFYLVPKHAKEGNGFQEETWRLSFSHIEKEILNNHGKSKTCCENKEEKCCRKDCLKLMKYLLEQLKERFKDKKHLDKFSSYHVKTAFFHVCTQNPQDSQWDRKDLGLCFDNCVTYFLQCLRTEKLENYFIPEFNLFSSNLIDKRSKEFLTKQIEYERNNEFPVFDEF
T2 sequence (Q8C6L5 whole entry): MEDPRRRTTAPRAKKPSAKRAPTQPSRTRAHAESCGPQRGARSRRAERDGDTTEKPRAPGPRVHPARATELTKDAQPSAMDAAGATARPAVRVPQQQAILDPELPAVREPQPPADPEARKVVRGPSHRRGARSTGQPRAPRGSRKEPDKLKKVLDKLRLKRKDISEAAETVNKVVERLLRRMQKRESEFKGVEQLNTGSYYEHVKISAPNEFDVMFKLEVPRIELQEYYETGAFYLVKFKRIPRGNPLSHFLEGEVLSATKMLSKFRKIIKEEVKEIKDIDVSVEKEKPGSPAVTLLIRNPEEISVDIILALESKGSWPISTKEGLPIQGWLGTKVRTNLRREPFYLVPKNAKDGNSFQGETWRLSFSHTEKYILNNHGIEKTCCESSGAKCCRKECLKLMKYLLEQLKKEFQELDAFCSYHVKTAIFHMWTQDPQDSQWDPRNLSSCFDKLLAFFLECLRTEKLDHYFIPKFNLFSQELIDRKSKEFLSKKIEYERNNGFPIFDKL

| Structure (SMILES) | IC50 (Cyclic GMP-AMP synthase [2]) | CC50 (THP1-Dual) | further results |
| --- | --- | --- | --- |
| Cn1ccc(-c2cc(Cl)c(Cl)c3[nH]c4c(c23)CN(C(=O)CO)CC4)n1 | 4.82 µM |  | Kd (Cyclic GMP-AMP synthase [1]): 0.053 µM; IC50 (Cyclic GMP-AMP synthase [3]): 14.6 µM and > 10 µM; IC50 (Cyclic GMP-AMP synthase [4]): 14.6 µM; CC50 [5]: 51.8 µM; IC50 (Cyclic GMP-AMP synthase [6]): 0.051 µM; half-life [7]: 1.03 h; MRT last [8]: 1.5 h; Vd [9]: 1.88 L/kg; half-life [10]: 1.31 h; MRT last [11]: 3.56 h; IC50 (Cyclic GMP-AMP synthase [12]): 1.7 µM; AUC(0-t) (in vivo [13]): 792 ng·h/mL; clearance (in vivo [14]): 20.7 mL/min/kg; Tmax (in vivo [15]): 2.67 h; Cmax (in vivo [16]): 375 ng/mL; AUC(0-t) (in vivo [17]): 1520 ng·h/mL; bioavailability (in vivo [18]): 64.1% |
| Cn1ccc(-c2cc(Cl)c(Cl)c3[nH]c4c(c23)CC2(CC4)CCN(C(=O)CO)CC2)n1 | 12.9 µM | > 50 µM |  |
| O=C(CO)N1CCC2(CCc3[nH]c4c(Cl)c(Cl)cc(-c5ccnc(OC(F)F)c5)c4c3C2)C1 (stereo not given) | 6.41 µM | 13.2 µM |  |
| Cn1cc(-c2cc(Cl)c(Cl)c3[nH]c4c(c23)CC2(CC4)CCN(C(=O)CO)C2)cn1 (stereo not given) | 24.7 µM | > 50 µM |  |
| O=C(CO)N1CCC2(CCc3[nH]c4c(Cl)c(Cl)cc(-c5cnn(C6CCNCC6)c5)c4c3C2)C1 (stereo not given) | 12.9 µM | > 50 µM |  |
| Cn1ccc(-c2cc(Cl)c(Cl)c3[nH]c4c(c23)CC2(CC4)CN(C(=O)CO)C2)n1 | 36 µM | 17.7 µM |  |
| Cn1ccc(-c2cc(Cl)c(Cl)c3c2[C@@H]2CN(C(=O)CO)CC[C@@H]2N3)n1 | > 50 µM | > 50 µM |  |
| O=C(CO)N1CCC2(CCc3[nH]c4c(Cl)c(Cl)cc(-c5cnc(C(F)(F)F)nc5)c4c3C2)C1 (stereo not given) | 7.54 µM | 34 µM | IC50 (Cyclic GMP-AMP synthase [19]): 7.54 µM |
| Cn1ccc(-c2cc(Cl)c(Cl)c3[nH]c4c(c23)CC(NC(=O)CO)CC4)n1 (stereo not given) | > 50 µM | > 50 µM |  |
| Cn1ccc(-c2cc(Cl)c(Cl)c3[nH]c4c(c23)CC2(CC4)CCN(C(=O)CO)C2)n1 (stereo not given) | 7.65 µM | > 50 µM | IC50 (Cyclic GMP-AMP synthase [3]): 8.91 µM; IC50 (Cyclic GMP-AMP synthase [19]): 7.65 µM; IC50 (Cyclic GMP-AMP synthase [4]): 8.91 µM |
| Cn1ccc(-c2cc(Cl)c(Cl)c3[nH]c4c(c23)CC2(CCN(C(=O)CO)CC2)C4)n1 | 37.4 µM | > 50 µM |  |
| N#Cc1cc(-c2cc(Cl)c(Cl)c3[nH]c4c(c23)CC2(CC4)CCN(C(=O)CO)C2)ccn1 (stereo not given) | 6.35 µM | 10.3 µM |  |
| O=C(CO)N1CCC2(CCc3[nH]c4c(Cl)c(Cl)cc(-c5ccc(F)nc5F)c4c3C2)C1 (stereo not given) | 7.15 µM | 33.4 µM |  |
| Cn1nc(C(F)(F)F)cc1-c1cc(Cl)c(Cl)c2[nH]c3c(c12)CC1(CC3)CCN(C(=O)CO)C1 (stereo not given) | 5.82 µM | 17.3 µM |  |
| Nc1ccc(-c2cc(Cl)c(Cl)c3[nH]c4c(c23)CC2(CC4)CCN(C(=O)CO)C2)cn1 (stereo not given) | 8.04 µM | 47.8 µM | IC50 (Cyclic GMP-AMP synthase [19]): 8.04 µM |
| O=C(CO)N1CCC2(CCc3[nH]c4c(Cl)c(Cl)cc(-c5cn[nH]c5)c4c3C2)C1 (stereo not given) | 5.86 µM | 13.7 µM |  |
| O=C(CO)N1CCC2(CCc3[nH]c4c(Cl)c(Cl)cc(-c5ccnc(C(F)F)c5)c4c3C2)C1 (stereo not given) | 6.43 µM | 10.6 µM |  |
| O=C(CO)N1CCC2(CCc3[nH]c4c(Cl)c(Cl)cc(-c5cnn(C(F)F)c5)c4c3C2)C1 (stereo not given) | 5.8 µM | 37.7 µM | IC50 (Cyclic GMP-AMP synthase [3]): 8.69 µM; IC50 (Cyclic GMP-AMP synthase [19]): 5.8 µM; IC50 (Cyclic GMP-AMP synthase [4]): 8.69 µM |
| Cn1ncc(-c2cc(Cl)c(Cl)c3[nH]c4c(c23)CC2(CC4)CCN(C(=O)CO)C2)n1 (stereo not given) | 10.5 µM | 26.3 µM |  |
| N#Cc1ncc(-c2cc(Cl)c(Cl)c3[nH]c4c(c23)CC2(CC4)CCN(C(=O)CO)C2)cc1F (stereo not given) | 7.82 µM | 33.1 µM |  |
| Cc1nn(-c2cc3ccc(Cl)c(Cl)c3[nH]2)c(O)c1C1OC(=O)c2ccccc21 (stereo not given) |  |  | IC50 (Cyclic GMP-AMP synthase [20]): 0.11 µM; IC50 (Cyclic GMP-AMP synthase [21]): 2.94 µM |
| O=C(CO)N1CCC2(CCc3[nH]c4c(Cl)c(Cl)cc(-c5ccnc(C(F)(F)F)n5)c4c3C2)C1 (stereo not given) | 4.26 µM | 14.4 µM |  |
| C#CC(=O)N1CCn2cccc2C1c1ccccc1 (stereo not given) |  |  | IC50 (Cyclic GMP-AMP synthase [22]): 0.97 µM |

More lines, main results first:

| IC50 (Cyclic GMP-AMP synthase [2]) | Structure (SMILES) | CC50 (THP1-Dual) | further results |
| --- | --- | --- | --- |
| 8.66 µM | O=C(CO)N1CCC2(CCc3[nH]c4c(Cl)c(Cl)cc(-c5ccc(C(F)(F)F)nc5)c4c3C2)C1 (stereo not given) | 31.7 µM |  |
| 6.27 µM | O=C(CO)N1CCC2(CCc3[nH]c4c(Cl)c(Cl)cc(-c5ccnc(F)c5)c4c3C2)C1 (stereo not given) | 13.6 µM |  |
| 17.6 µM | C[C@@H](O)C(=O)N1CCC2(CCc3[nH]c4c(Cl)c(Cl)cc(-c5ccnc(C(F)(F)F)c5)c4c3C2)C1 (stereo not given in full) | 39.1 µM |  |
| 4.45 µM | O=C(CO)N1CCC2(CCc3[nH]c4c(Cl)c(Cl)cc(-c5ccnc(C(F)(F)F)c5)c4c3C2)C1 (stereo not given) | 34 µM | IC50 (Cyclic GMP-AMP synthase [3]): 11.4 µM; IC50 (Cyclic GMP-AMP synthase [19]): 4.45 µM; IC50 (Cyclic GMP-AMP synthase [4]): 11.4 µM; half-life [7]: 3.36 h; MRT last [8]: 3.59 h; Vd [9]: 4.48 L/kg; half-life [10]: 1.82 h; MRT last [11]: 2.99 h; AUC(0-t) (in vivo [13]): 1070 ng·h/mL; clearance (in vivo [14]): 15.5 mL/min/kg; Tmax (in vivo [15]): 0.667 h; Cmax (in vivo [16]): 223 ng/mL; AUC(0-t) (in vivo [17]): 920 ng·h/mL; bioavailability (in vivo [18]): 30% |
| 9.48 µM | CS(=O)(=O)CC(=O)N1CCC2(CCc3[nH]c4c(Cl)c(Cl)cc(-c5ccnc(C(F)(F)F)c5)c4c3C2)C1 (stereo not given) | 10.4 µM |  |
| 6.45 µM | Nc1cc(-c2cc(Cl)c(Cl)c3[nH]c4c(c23)CC2(CC4)CCN(C(=O)CO)C2)ccn1 (stereo not given) | > 50 µM | IC50 (Cyclic GMP-AMP synthase [3]): 4.71 µM; IC50 (Cyclic GMP-AMP synthase [19]): 6.45 µM; IC50 (Cyclic GMP-AMP synthase [4]): 4.71 µM |
| 11 µM | C[C@H](O)[C@@H](N)C(=O)N1CCC2(CCc3[nH]c4c(Cl)c(Cl)cc(-c5ccnc(C(F)(F)F)c5)c4c3C2)C1 (stereo not given in full) | 30.3 µM |  |
| 3.41 µM | NCC(=O)N1CCC2(CCc3[nH]c4c(Cl)c(Cl)cc(-c5ccnc(C(F)(F)F)c5)c4c3C2)C1 (stereo not given) | 11.1 µM |  |
| 6.94 µM | C[C@@H](N)C(=O)N1CCC2(CCc3[nH]c4c(Cl)c(Cl)cc(-c5ccnc(C(F)(F)F)c5)c4c3C2)C1 (stereo not given in full) | 7.08 µM |  |
| 4.3 µM | C[C@H](N)C(=O)N1CCC2(CCc3[nH]c4c(Cl)c(Cl)cc(-c5ccnc(C(F)(F)F)c5)c4c3C2)C1 (stereo not given in full) | 16.4 µM |  |
| 38.8 µM | C[C@H](O)C(=O)N1CCC2(CCc3[nH]c4c(Cl)c(Cl)cc(-c5ccnc(C(F)(F)F)c5)c4c3C2)C1 (stereo not given in full) | 12.7 µM |  |
| 8.46 µM | CC(C)=C(C#N)C(=O)N1CCC2(CCc3[nH]c4c(Cl)c(Cl)cc(-c5ccnc(C(F)(F)F)c5)c4c3C2)C1 (stereo not given) | 45.1 µM |  |
